{
  "source": "patent US20080145346A1",
  "about": "“Methods And Compounds For Altering The Load Of Hepatitis Virus” (Agency for Science, Technology and Research, priority 2003, published 2008)",
  "system": "hnRNP K",
  "assay": "Electrophoretic Mobility Shift Assay (EMSA) of HBV enhancer II probes with HepG2 nuclear extracts",
  "format": "binding, human",
  "settings": "10 μg HepG2 nuclear extracts; 32P end-labelled 28-mer probe",
  "protocol": "28-mer oligonucleotide probes were designed to contain either the 1752A or 1752G nucleotide with control probes taken from the adjacent upstream sequence. EMSA was performed using HepG2 nuclear extracts with the four respective probes. Probe 1 (SEQ ID NO: 12): Lanes 1 to 4; Probe 2 (SEQ ID NO: 13, A^1752): Lanes 5 to 8; Probe 3 (SEQ ID NO: 14): Lanes 9 to 12; Probe 4 (SEQ ID NO: 15, G^1752): Lanes 13 to 16. Each set of probes contains increasing concentrations (0.0 μg, 0.05 μg, 0.10 μg and 0.15 μg) of non-specific competitor DNA of [poly-(dI)-poly-(dC)] respectively. This competitor DNA is included to minimize the binding of nonspecific proteins to the labeled probes. DNA-protein complexes migrate at a different speed than free DNA molecules. […] Verification of the presence of hnRNP K as the second component in the complex can subsequently be performed by an analysis as shown in FIG. 19. hnRNP K was detected using the 1752A probe (Probe 2, lanes 5 to 8) along with a weaker band of similar size using the 1752G probe (Probe 4, lanes 13 to 16). […]\nHBV-hnRNP K interaction was analysed by a method that is known to persons skilled in the art as an “electrophoretic mobility shift assay” or “EMSA”. […] The 1752A probe (Probe 2, lanes 5 to 8) detected hnRNP K in form of a band. A corresponding weaker band of hnRNP was detected by the 1752G probe (Probe 4, lanes 13 to 16 in FIG. 18).",
  "data": [
    {"sequence": "AGTTGGGGGAGGAGATTAGGTTAAAGGT (listed as DNA, chemistry not given here) [Probe 2, 28-mer HBV enhancer II oligonucleotide probe containing 1752A]", "values": [
      {"measurement": "densitometric band signal of hnRNP K higher than that detected by Probe 4", "result": "about 300%"}
    ]}
  ]
}
